Molecular target: T1, Arginase-1 (Homo sapiens, UniProt P05089)
T1 sequence (P05089 whole entry): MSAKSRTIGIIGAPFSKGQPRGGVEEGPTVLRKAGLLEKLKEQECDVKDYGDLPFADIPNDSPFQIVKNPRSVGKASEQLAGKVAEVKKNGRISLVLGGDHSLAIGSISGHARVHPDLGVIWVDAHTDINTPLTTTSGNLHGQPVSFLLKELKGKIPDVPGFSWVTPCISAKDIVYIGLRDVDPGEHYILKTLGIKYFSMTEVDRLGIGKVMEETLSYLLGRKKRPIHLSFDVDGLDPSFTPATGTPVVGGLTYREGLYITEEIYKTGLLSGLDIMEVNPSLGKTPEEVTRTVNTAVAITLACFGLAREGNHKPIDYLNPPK
Experiment: Inhibition of human recombinant full length arginase 1 expressed in Escherichia coli BL21(DE3) by fixed point assay

Ki: > 800 mM
SMILES: Nc1ncc(CCCC(N)C(=O)O)[nH]1 (stereo unspecified) [2-amino-5-(2-aminoimidazol-4-yl)pentanoic acid]

Reference: BindingDB's records for doi:10.1021/jm100306a (University of Pennsylvania, 2010)
